# Results as given in US8202885B2, “Bridged six-membered ring compounds” (Actelion Pharmaceuticals Ltd., priority 2007, dated 2012).
# pIC50: −log10 of the molar value.
# System: human Cav3.1 Cav3.2 or Cav3.3 channel
# Assay: In vitro assay T channel (FLIPR calcium fluorescence)
# Assay type: cell-based
# Conditions: HEK293 cells expressing human Cav3.1, Cav3.2 or Cav3.3; 10 mM Ca2+-induced fluo-4 fluorescence; determined up to 10 μM; read-out: T channel antagonistic activity IC50
# Procedure, shortened: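 HEK293 cells stably expressing human Cav3.1, Cav3.2 or Cav3.3 loaded with fluo-4 AM (3 μM), preincubated 3 min with antagonist, then stimulated with 10 mM Ca2+ in TEA-chloride/HEPES buffer pH 7.2. FLIPR fluorescence read every 2 s for 8 min; IC50 from peak area versus vehicle, tested up to 10 μM.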
row,Structure (SMILES),pIC50
1,"COc1cc2nc(CCCN(C)CC[C@]3(O)C[C@H]4CC[C@@H]3C=C4c3ccccc3)[nH]c2cc1OC (relative stereo) [Example 28, rac-(1R*,2R*,4R*)-2-(2-{[3-(5,6-Dimethoxy-1H-benzoimidazol-2-yl)-propyl]-methyl-amino}-ethyl)-5-phenyl-bicyclo[2.2.2]oct-5-en-2-ol]",5.60
2,"COc1ccc(Cl)c2[nH]c(CCCN(C)CC[C@]3(OC(=O)C(C)C)C[C@H]4CC[C@@H]3C=C4c3ccccc3)nc12 (relative stereo) [Example 58A, rac-Isobutyric acid (1R*,2R*,4R*)-2-(2-{[3-(7-chloro-4-methoxy-1H-benzoimidazol-2-yl)-propyl]-methyl-amino}-ethyl)-5-phenyl-bicyclo[2.2.2]oct-5-en-2-yl ester]",6.12
3,"CC(C)C(=O)O[C@@]1(CCN(C)CCCc2cnc3occc3c2)C[C@H]2CC[C@@H]1C=C2c1ccccc1 (relative stereo) [Example 41A, rac-Isobutyric acid (1R*,2R*,4R*)-2-{2-[(3-furo[2,3-b]pyridin-5-yl-propyl)-methyl-amino]-ethyl}-5-phenyl-bicyclo[2.2.2]oct-5-en-2-yl ester]",5.08
4,"CC(C)C(=O)O[C@@]1(CCN(C)CCCc2nc3ccccc3[nH]2)C[C@H]2CC[C@@H]1C[C@@]21OCc2ccccc21 (relative stereo) [Example 79A, rac-Isobutyric acid (1R*,2R*,4R*,5R*)-5-(2-{[3-(1H-benzoimidazol-2-yl)-propyl]-methyl-amino}-ethyl)-3′H-spiro(bicyclo[2.2.2]octane-2,1′-isobenzofuran)-5-yl ester]",5.02
5,"Cc1cccc(C2=C[C@H]3CC[C@@H]2C[C@@]3(O)CCN(C)CCCc2nc3ccccc3[nH]2)c1 (relative stereo) [Example 5, rac-(1R*,2R*,4R*)-2-(2-{[3-(1H-Benzoimidazol-2-yl)-propyl]-methyl-amino}-ethyl)-5-(3-methyl-phenyl)-bicyclo[2.2.2]oct-5-en-2-ol]",5.07
6,"CN(CCCc1nc2ccccc2[nH]1)CC[C@]1(O)C[C@H]2CC[C@@H]1C[C@@]21OCc2ccccc21 (relative stereo) [Example 79, rac-(1R*,2R*,4R*,5R*)-5-(2-{[3-(1H-Benzoimidazol-2-yl)-propyl]-methyl-amino}-ethyl)-3′H-spiro(bicyclo[2.2.2]octane-2,1′-isobenzofuran)-5-ol]",5.54
7,"COc1cccc2[nH]c(CCCN(C)CC[C@]3(OC(=O)C(C)C)C[C@H]4CCC[C@@H]3C=C4c3ccccc3)nc12 (relative stereo) [Example 36A, rac-Isobutyric acid (1R*,5R*,6R*)-6-(2-{[3-(4-methoxy-1H-benzoimidazol-2-yl)-propyl]-methyl-amino}-ethyl)-8-phenyl-bicyclo[3.2.2]non-8-en-6-yl ester]",6.00
8,"COC(C)(C)C(=O)NCCCN(C)CC[C@]1(O)C[C@H]2CC[C@@H]1C=C2c1ccccc1 (relative stereo) [Example 44, rac-N-(3-{[2-((1R*,2R*,4R*)-2-Hydroxy-5-phenyl-bicyclo[2.2.2]oct-5-en-2-yl)-ethyl]-methyl-amino}-propyl)-2-methoxy-2-methyl-propionamide]",< 5.00
9,"CO[C@]1(c2ccccc2)C[C@H]2CC[C@@H]1C[C@@]2(O)CCN(C)CCCc1nc2ccccc2[nH]1 (relative stereo) [Example 76, rac-(1R*,2R*,4R*,5R*)-2-(2-{[3-(1H-Benzoimidazol-2-yl)-propyl]-methyl-amino}-ethyl)-5-methoxy-5-phenyl-bicyclo[2.2.2]octan-2-ol]",< 5.00
10,"CN(CC[C@]1(O)C[C@H]2CC[C@@H]1C=C2c1ccccc1)Cc1nc2ccccc2[nH]1 (relative stereo) [Example 14, rac-(1R*,2R*,4R*)-2-{2-[(1H-Benzoimidazol-2-ylmethyl)-methyl-amino]-ethyl}-5-phenyl-bicyclo[2.2.2]oct-5-en-2-ol]",5.05
11,"COc1cc(C)c2[nH]c(CCCN(C)CC[C@]3(OC(=O)C(C)C)C[C@H]4CC[C@@H]3C=C4c3ccccc3)nc2c1OC (relative stereo) [Example 64A, rac-Isobutyric acid (1R*,2R*,4R*)-2-(2-{[3-(4,5-dimethoxy-7-methyl-1H-benzoimidazol-2-yl)-propyl]-methyl-amino}-ethyl)-5-phenyl-bicyclo[2.2.2]oct-5-en-2-yl ester]",6.04
12,"COc1cccc2[nH]c(CCCN(C)CC[C@]3(OC(=O)C(C)(C)C)C[C@H]4CC[C@@H]3C=C4c3ccccc3)nc12 (relative stereo) [Example 26D, rac-2,2-Dimethyl propionic acid (1R*,2R*,4R*)-2-(2-{[3-(4-methoxy-1H-benzoimidazol-2-yl)-propyl]-methyl-amino}-ethyl)-5-phenyl-bicyclo[2.2.2]oct-5-en-2-yl ester]",5.98
13,"CC(C)C(=O)O[C@@]1(CCN(C)CCCc2nc(-c3ccccc3)c(-c3ccccc3)[nH]2)C[C@H]2CC[C@@H]1C=C2c1ccccc1 (relative stereo) [Example 47A, rac-Isobutyric acid (1R*,2R*,4R*)-2-(2-{[3-(4,5-diphenyl-1H-imidazol-2-yl)-propyl]-methyl-amino}-ethyl)-5-phenyl-bicyclo[2.2.2]oct-5-en-2-yl ester]",5.10
14,"CN(CCCc1nc2ccccc2[nH]1)CC[C@]1(O)C[C@H]2CC[C@@H]1C=C2c1ccccc1 (relative stereo) [Example 1, rac-(1R*,2R*,4R*)-2-(2-{[3-(1H-Benzoimidazol-2-yl)-propyl]-methyl-amino}-ethyl)-5-phenyl-bicyclo[2.2.2]oct-5-en-2-ol]",5.64
15,"COc1cccc2[nH]c(CCCN(C)CC[C@]3(OC(=O)C4CCC4)C[C@H]4CC[C@@H]3C=C4c3ccccc3)nc12 (relative stereo) [Example 26B, rac-Cyclobutanecarboxylic acid (1R*,2R*,4R*)-2-(2-{[3-(4-methoxy-1H-benzoimidazol-2-yl)-propyl]-methyl-amino}-ethyl)-5-phenyl-bicyclo[2.2.2]oct-5-en-2-yl ester]",< 5.00
16,"COc1cc(OC)c2nc(CCCN(C)CC[C@]3(OC(=O)C(C)C)C[C@H]4CC[C@@H]3C=C4c3ccccc3)[nH]c2c1 (relative stereo) [Example 59A, rac-Isobutyric acid (1R*,2R*,4R*)-2-(2-{[3-(4,6-dimethoxy-1H-benzoimidazol-2-yl)-propyl]-methyl-amino}-ethyl)-5-phenyl-bicyclo[2.2.2]oct-5-en-2-yl ester]",6.02
17,"CC(C)C(=O)OC1(CCN(C)CCCc2nc3ccccc3[nH]2)CC2CCC1C=C2c1ccccc1 [Example 12A, Isobutyric acid (1R,2R,4R)-2-(2-{[3-(1H-benzoimidazol-2-yl)-propyl]-methyl-amino}-ethyl)-5-phenyl-bicyclo[2.2.2]oct-5-en-2-yl ester or isobutyric acid (1S,2S,4S)-2-(2-{[3-(1H-benzoimidazol-2-yl)-propyl]-methyl-amino}-ethyl)-5-phenyl-bicyclo[2.2.2]oct-5-en-2-yl ester]",5.37
18,"CC(=O)Nc1cccc2[nH]c(CCCN(C)CC[C@]3(OC(=O)C(C)C)C[C@H]4CC[C@@H]3C=C4c3ccccc3)nc12 (relative stereo) [Example 56A, rac-Isobutyric acid (1R*,2R*,4R*)-2-(2-{[3-(4-acetylamino-1H-benzoimidazol-2-yl)-propyl]-methyl-amino}-ethyl)-5-phenyl-bicyclo[2.2.2]oct-5-en-2-yl ester]",5.60
19,"Cc1ccc(C2=C[C@H]3CC[C@@H]2C[C@@]3(O)CCN(C)CCCc2nc3ccccc3[nH]2)cc1 (relative stereo) [Example 6, rac-(1R*,2R*,4R*)-2-(2-{[3-(1H-Benzoimidazol-2-yl)-propyl]-methyl-amino}-ethyl)-5-(4-methyl-phenyl)-bicyclo[2.2.2]oct-5-en-2-ol]",5.31
20,"CC(C)Oc1cccc2nc(CCCN(C)CC[C@]3(O)C[C@H]4CC[C@@H]3C=C4c3ccccc3)[nH]c12 (relative stereo) [Example 33, rac-(1R*,2R*,4R*)-2-(2-{[3-(7-Isopropoxy-1H-benzoimidazol-2-yl)-propyl]-methyl-amino}-ethyl)-5-phenyl-bicyclo[2.2.2]oct-5-en-2-ol]",5.52
21,"COc1ccc(C)c2nc(CCCN(C)CC[C@]3(O)C[C@H]4CC[C@@H]3C=C4c3ccccc3)[nH]c12 (relative stereo) [Example 30, rac-(1R*,2R*,4R*)-2-(2-{[3-(7-Methoxy-4-methyl-1H-benzoimidazol-2-yl)-propyl]-methyl-amino}-ethyl)-5-phenyl-bicyclo[2.2.2]oct-5-en-2-ol]",5.75
22,"CN(CCCc1cccnc1)CC[C@]1(O)C[C@H]2CC[C@@H]1C=C2c1ccccc1 (relative stereo) [Example 46, rac-(1R*,2R*,4R*)-2-{2-[Methyl-(3-pyridin-3-yl-propyl)-amino]-ethyl}-5-phenyl-bicyclo[2.2.2]oct-5-en-2-ol]",< 5.00
23,"Cc1cccc(C)c1C1=C[C@H]2CC[C@@H]1C[C@]2(CCN(C)CCCc1nc2ccccc2[nH]1)OC(=O)C(C)C (relative stereo) [Example 3A, rac-Isobutyric acid (1R*,2R*,4R*)-2-(2-{[3-(1H-benzoimidazol-2-yl)-propyl]-methyl-amino}-ethyl)-5-(2,6-dimethyl-phenyl)-bicyclo[2.2.2]oct-5-en-2-yl ester]",5.34
24,"CN(CCCc1nc2ccccc2[nH]1)CC[C@]1(O)C[C@H]2CC[C@@H]1C=C2c1ccc2ccccc2c1 (relative stereo) [Example 10, rac-(1R*,2R*,4R*)-2-(2-{[3-(1H-Benzoimidazol-2-yl)-propyl]-methyl-amino}-ethyl)-5-naphthalen-2-yl-bicyclo[2.2.2]oct-5-en-2-ol]",5.23
25,"COc1cccc2[nH]c(CCCN(C)CC[C@]3(OC(=O)NC(C)C)C[C@H]4CC[C@@H]3C=C4c3ccccc3)nc12 (relative stereo) [Example 26E, rac-Isopropyl-carbamic acid (1R*,2R*,4R*)-2-(2-{[3-(4-methoxy-1H-benzoimidazol-2-yl)-propyl]-methyl-amino}-ethyl)-5-phenyl-bicyclo[2.2.2]oct-5-en-2-yl ester]",5.95
